In patent US4193996A, “Spiro-quinolone hydantoins” (Pfizer Inc., priority 1979, dated 1980):

Experiments:
aldose reductase = test: Inhibition of aldose reductase enzyme activity (partially purified enzyme from calf lens); assay type: biochemical
Procedure: The compounds of Examples 3 and 4 were tested for their ability to reduce or inhibit aldose reductase enzyme activity, following the procedure described in U.S. Pat. No. 3,821,383 and based on the procedure of Hayman et. al., Journal of Biological Chemistry, 240, 877 (1965). The substrate employed was partially purified aldose reductase enzyme obtained from calf lens.

[1] = system: sorbitol accumulation in the sciatic nerve; test: Inhibition of sorbitol accumulation in the sciatic nerve of streptozotocinized (diabetic) rats; assay type: in vivo, rat; settings: oral, at 4, 8 and 24 hours after streptozotocin, measured 27 hours after induction of diabetes
Procedure: The compounds of Examples 3 and 4 were tested for their ability to reduce or inhibit sorbitol accumulation in the sciatic nerve of streptozotocinized (i.e. diabetic) rats by the procedure essentially described in U.S. Pat. No. 3,821,383. In the present study, the amount of sorbitol accumulation in the sciatic nerves was measured 27 hours after induction of diabetes. The compounds were administered orally at the dose levels indicated at 4, 8 and 24 hours following the administration of streptozotocin. The results obtained in this manner are presented below in terms of percent inhibition (%) afforded by the test compound as compared to the case where no compound was administered (i.e. the untreated animal, where sorbitol levels normally rise from approximately […]. tissue in the 27-hour test period): […]

Compound	% Inhibition at 10^-6 m (inhibition of aldose reductase enzyme activity) (aldose reductase) [%]	% Inhibition at 1.5 mg/kg (sorbitol accumulation in the sciatic nerve vs untreated) [1] [%]
O=C1NC(=O)C2(CCn3c(=O)ccc4cccc2c43)N1 (stereo not shown) [Example 3, Spiro[2,3-dihydro-1H, 5H-benzo[ij]quinolizin [1,4']imidazolidin]-2', 5, 4'-trione]	86	27
O=C1NC(=O)C2(CCn3c(=O)ccc4cc(Cl)cc2c43)N1 (stereo not shown) [Example 4, 10-Chloro-spiro[2,3-dihydro-1H, 5H-benzo[ij]quinolizin[1,4']imidazolidin]-2', 5, 5'-trione]	94	32
